Reference: patent US20240262857A1, “NOVEL UNIVERSAL ANTI-RNA VIRUS AGENTS” (priority 2021, published 2024)
Where two headings read alike, the source gives them in different places.

Experiments:
[1] = Cellular toxicity assay, Vero cells; details: African green monkey
[2] = Cellular toxicity assay, Huh7 cells; type: cell-based; details: human, read-out: Cytotoxicity CC50 Huh7
[3] = test system: SARS-CoV-2; experiment: microbe, parasite or virus in culture; type: cell-based
[4] = Cellular toxicity assay, CEM cells; details: human
[5] = Cellular toxicity assay, PBM cells; details: human
[6] = test system: Vero cells; experiment: Incubation of NHC in Vero cells, LC-MS/MS of deoxy-NHC derivatives; details: 4 h at 37° C.
[7] = test system: Vero cells; experiment: Cellular toxicity assay, Vero cells; details: read-out: Cytotoxicity CC50 Vero; Vero cells
[8] = test system: HCoV-OC43; experiment: microbe, parasite or virus in culture; type: cell-based; details: Betacoronavirus 1, OC43
[9] = test system: CEM cells; experiment: Cellular toxicity assay, CEM cells; details: read-out: Cytotoxicity CC50 CEM; CEM cells
[10] = target: T1, ribonucleotide reductase (RNR) (Homo sapiens, UniProt P23921)
T1 sequence (P23921 1-792): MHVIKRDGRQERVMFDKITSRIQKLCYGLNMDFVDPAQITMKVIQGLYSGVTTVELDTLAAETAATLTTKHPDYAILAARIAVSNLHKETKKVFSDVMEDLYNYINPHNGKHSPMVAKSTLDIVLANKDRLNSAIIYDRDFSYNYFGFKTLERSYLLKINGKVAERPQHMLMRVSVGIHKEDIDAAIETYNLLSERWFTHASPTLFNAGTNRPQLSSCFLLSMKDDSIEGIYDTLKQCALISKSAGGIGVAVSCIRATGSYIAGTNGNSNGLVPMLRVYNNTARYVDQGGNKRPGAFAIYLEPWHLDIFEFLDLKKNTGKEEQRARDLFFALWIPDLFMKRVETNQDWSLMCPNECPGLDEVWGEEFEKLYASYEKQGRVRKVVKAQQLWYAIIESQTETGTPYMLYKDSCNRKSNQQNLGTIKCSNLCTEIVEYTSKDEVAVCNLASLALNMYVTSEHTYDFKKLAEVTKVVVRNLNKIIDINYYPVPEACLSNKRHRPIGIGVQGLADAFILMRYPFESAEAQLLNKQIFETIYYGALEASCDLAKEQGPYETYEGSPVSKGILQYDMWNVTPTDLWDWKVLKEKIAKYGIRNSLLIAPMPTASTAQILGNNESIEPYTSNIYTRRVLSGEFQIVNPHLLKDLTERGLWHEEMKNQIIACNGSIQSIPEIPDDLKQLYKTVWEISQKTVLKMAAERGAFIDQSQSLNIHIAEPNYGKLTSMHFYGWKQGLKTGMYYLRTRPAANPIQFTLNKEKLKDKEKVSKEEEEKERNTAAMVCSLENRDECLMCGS
T1 sequence (P31350 1-389 partner): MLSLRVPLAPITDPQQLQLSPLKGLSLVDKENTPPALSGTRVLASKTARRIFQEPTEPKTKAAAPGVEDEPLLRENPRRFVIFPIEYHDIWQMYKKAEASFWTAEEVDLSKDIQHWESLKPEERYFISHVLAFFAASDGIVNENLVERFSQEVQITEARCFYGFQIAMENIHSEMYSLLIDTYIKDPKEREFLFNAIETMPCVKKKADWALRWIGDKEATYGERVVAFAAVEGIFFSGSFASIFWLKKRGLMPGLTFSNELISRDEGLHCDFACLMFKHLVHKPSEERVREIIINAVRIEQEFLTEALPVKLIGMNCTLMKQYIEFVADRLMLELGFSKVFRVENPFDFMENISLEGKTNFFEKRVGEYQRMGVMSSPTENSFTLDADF

[11] = Severe acute respiratory syndrome coronavirus 2, Calu-3, Calu3 cells, read-out: Anti-SARS-CoV-2 Activity (Calu3) EC50
[12] = Severe acute respiratory syndrome coronavirus 2, Calu-3, Calu3 cells, read-out: Anti-SARS-CoV-2 Activity (Calu3) EC90
[13] = Severe acute respiratory syndrome coronavirus 2, Vero cells, read-out: Anti-SARS-CoV-2 Activity (Vero) EC50
[14] = Severe acute respiratory syndrome coronavirus 2, Vero cells, read-out: Anti-SARS-CoV-2 Activity (Vero) EC90

| Compound | CC50 [1] | CC50 [2] | EC50 [3, 11] | EC90 [3, 12] | EC50 [3, 13] | EC90 [3, 14] | CC50 [4] | CC50 [5] | deoxy-NHC-TP detected in vero cells ([6]; 10 μM NHC, cell pellet) | deoxy-NHC-TP detected in vero cells ([6]; 50 μM NHC, cell pellet) | level of deoxy-NHC, -MP and -DP in vero cells ([6]; cell pellet) | deoxy-NHC or its derivatives in vero cell medium ([6]; supernatant) | CC50 [7] | EC50 ([8]; read-out: Anti-Hcov-OC43 EC50) | EC90 ([8]; read-out: Anti-Hcov-OC43 EC90) | EC50 ([3]; Severe acute respiratory syndrome coronavirus 2, read-out: Anti-SARS-Cov-2 EC50) | EC90 ([3]; Severe acute respiratory syndrome coronavirus 2, read-out: Anti-SARS-Cov-2 EC90) | CC50 [9] | ratio diphosphate : 2'-deoxy-diphosphate in the samples after RNR reaction [10] | ratio triphosphate : 2'-deoxy-triphosphate in the samples after RNR reaction [10] |
| --- | --- | --- | --- | --- | --- | --- | --- | --- | --- | --- | --- | --- | --- | --- | --- | --- | --- | --- | --- | --- |
| CC1(O)C(O)[C@H](n2ccc(NO)nc2=O)O[C@@H]1CO (stereo partly shown) | > 100 µM | ≥ 100 µM | > 100000 nM | > 100000 nM | 600 nM | 7400 nM | > 100 µM | > 100 µM | – | – | – | – | – | – | – | – | – | – | – | – |
| [2H]C1(O)C(O)[C@H](n2ccc(NO)nc2=O)O[C@@H]1CO (stereo partly drawn) [D-NHC] | 41.6 µM | 27.7 µM | 200 nM | 900 nM | 100 nM | 250 nM | – | 24.1 µM | – | – | – | – | – | – | – | – | – | – | – | – |
| O=c1nc(NO)ccn1[C@@H]1O[C@H](CO)[C@@H](O)[C@H]1O [NHC, N^4-hydroxycytidine] | – | – | 600 nM | 2000 nM | 200 nM | 420 nM | – | – | not | trace amount | below limit of detection | no deoxy-NHC or its derivatives was detected | 16.5 µM | 800 nM | 1800 nM | 300 nM | 800 nM | 2600 nM | – | – |
| O=c1nc(NO)ccn1[C@@H]1O[C@H](COP(=O)(O)OP(=O)(O)O)[C@@H](O)[C@H]1O [NHC-DP] | – | – | – | – | – | – | – | – | – | – | – | – | – | – | – | – | – | – | around 100:0.1 | ~100:0.009 |
